Laboratory results reported in patent US11844841B2, “Dosing regimens and related compositions and methods” (Apellis Pharmaceuticals, Inc., priority 2017, dated 2023).

Assays:
[1] = Inhalation study, repeated dosing; conditions: in vivo, inhaled or intranasal, 25 mg/kg/d; 7 day repeated dose study in the dog
Method: (§1) Inhalation studies of single dose or repeated dosing were conducted in dog and cynomolgus monkey. […] These doses were 25 mg/kg/d in a 7 day repeated dose study in the dog, 80 mg/kg in a single dose study in the monkey, and 30 mg/kg/day in a 14 day repeated dose in the monkey.

[2] = Phase 1 single and multiple ascending dose trial of inhaled (nebulized) CA28 in healthy volunteers; type: in vivo, human; conditions: for adverse event: one subject
Method: In the single ascending dose part of the trial, 16 subjects were enrolled in four cohorts of four subjects each.
Four subjects were enrolled in the first cohort of the multiple ascending dose part of the trial. These subjects were to receive 14 consecutive days of treatment with a 60 mg/day dose of the drug. […] The trial was paused and subsequently resumed, with subjects receiving 30 mg/day. […] The trial was then terminated.

[3] = Inhalation studies, single dose and repeated dosing; type: in vivo, cynomolgus monkey
Method: as §1

PNH RBCs = assay: Modified Ham's assay, comparison with Soliris (Example 19); type: cell-based, human; conditions: CA28-2GS-BF 50 ug/ml
Method: Flow cytometry was performed after antibody staining using antibodies against CD59 and C3d. In this figure, quadrant 1 (Q1) and quadrant 3 (Q3) represent Type III cells. Quadrant 2 (Q2) and quadrant 4 (Q4) represent Types I and II cells. Q1 and Q2 represent cells with a significant and abnormally high amount of C3 activation product (e.g., C3d) deposition. Q3 and Q4 represent cells without significant C3d deposition or somewhat elevated level (right portion of Q4) but less so than Q2 cells.

[4] = system: RBCs from a patient with PNH; assay: Modified Ham's test with flow cytometry for CD59 and C3d (Example 18); type: cell-based, human
Method: A modified Ham's test was performed to assess the ability of compstatin analogs to protect PNH RBCs from complement-mediated lysis. […] Exposure to heat inactivated human serum was used as a control representing no significant complement-mediated lysis as complement is inactivated by heat. Exposure to acidified human serum and magnesium (Mg^2+) in the absence of complement inhibitors (pane labeled Mg^2+) was used as a control representing maximum lysis.
Following incubation, cells were stained with antibodies to CD59 and C3d. CD59 level permitted the classification of the PNH RBCs as Type I, Type II, or Type III. Staining for C3d, a product of C3 activation and cleavage was used as a marker of C3 and C3 activation product deposition (loading). Flow cytometric analysis was performed to assess CD59 and C3d on RBC surfaces and to quantify the percentages of Type I, Type II, and Type III cells present in various samples.
Type I cells (shown in orange in FIG. 12) have normal levels of CD59. Type III cells (shown in blue in FIG. 12) have essentially no detectable CD59. […] Type II cells (shown in purple in FIG. 12) have reduced levels of CD59 as compared with normal or Type I cells and have an intermediate sensitivity to complement-mediated lysis. […] Type II cells may eventually lyse in the presence of activated complement but can accumulate a considerable amount of C3 activation products such as C3d before they do so. Reduction in or absence of lysis may be evidenced by increased levels of C3 or C3 activation products on Type II cells, as is evident by comparing the level of C3d on Type II cells in the no lysis panel with the level of C3d on Type II cells in the max. lysis panel in both FIGS. 12(A) and 12(B). […] A shift in the relative percentages of Type I, II, and III cells from the percentages present in the max. lysis control panels (Mg^2+) towards the percentages present in the no lysis control panels (heat inactivated serum) is indicative of protection against complement-mediated lysis. The column labeled % C′3 in Table 11 refers to the percentage of cells deemed “positive” for presence of C3 and C3 activation products (“C3 loading”).

[5] = system: complement activation via the classical pathway; assay: Classical complement inhibition assay (C3b deposition ELISA); type: biochemical, human
Method: Inhibitory activity of the synthesized compounds was assessed by measuring the effect of the compounds on complement activation via the classical pathway using a standard complement inhibition assay. The protocol measures C3b deposition in an ELISA format. C3b deposition monitored using this method is generated through complement activated by the classical pathway. Briefly, 96-well plates are coated with BSA. Human plasma, chicken ovalbumin (OVA), polyclonal anti-OVA antibodies and compound being tested (referred to as “drug”) are added and incubated, followed by addition of Anti-human C3 HRP-conjugated antibody. After an additional incubation, substrate is added and signal detected. Details of the protocol are as follows:
Protocol for Classical Complement Inhibition Assay
• Ninety-six well plate (polystyrene plate, Thermo Scientific, 9205) • Chicken OVA (Sigma A5503-5G) • Rabbit anti-chicken OVA (Abcam ab1221) • Blocking buffer (Startingblock buffer, Thermo Scientific 37538) • Veronal Buffer (5× concentration, Lonza 12-624E) • Human plasma (collected with Lepirudin at 50 ug/ml final concentration) • Goat anti-human C3 HRP-conjugated Ab (MP Biomedicals, 55237) • Tween-20 Wash Buffer (0.05% Tween 20-PBS buffer) • TMB (Peroxidase substrate, BD 555214)—1:1 mixture of BD 51-2607KC and 51-2606KC. • 1M H2SO4 Protocol: • 1. […]
Data was analyzed using GraphPad Prism5 software. […]

CC[C@H](C)[C@H](NC(C)=O)C(=O)N[C@H]1CSSC[C@@H](C(=O)N[C@H](C(N)=O)[C@@H](C)O)NC(=O)[C@H](CCCNC(=N)N)NC(=O)[C@H](Cc2cnc[nH]2)NC(=O)[C@H](C)NC(=O)CNC(=O)[C@H](Cc2c[nH]c3ccccc23)NC(=O)[C@H](CC(=O)O)NC(=O)[C@H](CCC(N)=O)NC(=O)[C@H](Cc2cn(C)c3ccccc23)NC(=O)[C@H](C(C)C)NC1=O [CA28]
NOAEL at 168 h [1]: 25 mg/kg/day | adverse event ([2]; 30 mg/day inhaled, after 10 days of treatment): signs and symptoms consistent with a potential bacterial infection | adverse event ([2]; 60 mg/day inhaled, after nine days of treatment): signs and symptoms consistent with a potential bacterial infection | safety and tolerability ([2]; single inhaled doses 20, 60, 150 or 350 mg): well tolerated and no serious adverse events were reported | highest inhaled dose tested, no drug-related findings ([3]; 14 day repeated dose in the monkey): 30 mg/kg/day | NOAEL ([3]; cynomolgus monkey, in vivo, inhaled or intranasal, 80 mg/kg, single dose study in the monkey): 80 mg/kg

CA28-2GS-BF: Bifunctional linear 40 kD PEG of the GS (glutaryl NHS ester) type coupled to two CA28-AEEAc-Lys moieties
deposition of C3d on PNH RBCs (PNH RBCs): essentially no deposition of C3d | Type I % C′3 ([4]; compound at 20 micrograms/ml): 2.18% | Type II % C′3 ([4]; compound at 20 micrograms/ml): 12.28% | Type III % C′3 ([4]; compound at 20 micrograms/ml): 0.99% | Type I % C′3 ([4]; compound at 40 micrograms/ml): 2.84% | Type III % C′3 ([4]; compound at 40 micrograms/ml): 1.21% | Type I % C′3 ([4]; compound at 50 micrograms/ml): 2.26% | Type III % C′3 ([4]; compound at 50 micrograms/ml): 1.29% | Type I % C′3 ([4]; compound at 60 micrograms/ml): 2.05% | Type II % C′3 ([4]; compound at 60 micrograms/ml): 13.04% | Type III % C′3 ([4]; compound at 60 micrograms/ml): 1.44% | Type I % C′3 ([4]; compound at 100 micrograms/ml): 0.07% | Type II % C′3 ([4]; compound at 100 micrograms/ml): 0.88% | Type III % C′3 ([4]; compound at 100 micrograms/ml): 0.11% | Type I % C′3 ([4]; compound at 200 micrograms/ml): 0.02% | Type II % C′3 ([4]; compound at 200 micrograms/ml): 0.26% | Type III % C′3 ([4]; compound at 200 micrograms/ml): 0.02% | Type I % C′3 ([4]; compound at 500 micrograms/ml): 0.04% | Type II % C′3 ([4]; compound at 500 micrograms/ml): 0.3% | Type III % C′3 ([4]; compound at 500 micrograms/ml): 0.05% | protection of PNH RBCs from complement-mediated lysis ([4]; in the presence of 100 ug/ml or more compstatin analog): complete protection from complement-mediated lysis | complement inhibiting activity, comparison in words [5]: virtually identical
